# Measured values published in US7700782B2, “Compounds 569” (AstraZeneca AB, priority 2007, dated 2010).
# Structures can show the parent of a compound that is named as a salt.
# Target: T1, Adrenergic β2 (Homo sapiens, UniProt P07550)
# T1 construct: Adherent H292 cells were removed from tissue culture flasks; endogenous in cells; host or cells: H292 cells
# Experiment: Adrenergic β2 mediated cAMP production in H292 cells (AlphaScreen cAMP detection)
# Format: cell-based
# Details: Intrinsic Activity, fraction relative to the maximum activity determined for formoterol
# Experimental: Adrenergic β2 Mediated cAMP Production
# H292 cells were grown in 225 cm2 flasks incubator at 37° C., 5% CO2 in RPMI medium containing, 10% (v/v) FBS (foetal bovine serum) and 2 mM L-glutamine.
# Adherent H292 cells were removed from tissue culture flasks by treatment with Accutase™ cell detachment solution for 15 minutes. Flasks were incubated for 15 minutes in a humidified incubator at 37° C., 5% CO2. Detached cells were re-suspended in RPMI media (containing 10% (v/v) FBS and 2 mM L-glutamine) at 0.05×10^6 cells per mL. 5000 cells in 100 μL were added to each well of a tissue-culture-treated 96-well plate and the cells incubated overnight in a humidified incubator at 37° C., 5% CO2. The culture media was removed and cells were washed twice with 100 μL assay buffer and replaced with 50 μL assay buffer (HBSS solution containing 10 mM HEPES pH 7.4 and 5 mM glucose). Cells were rested at room temperature for 20 minutes after which time 25 μL of rolipram (1.2 mM made up in assay buffer containing 2.4% (v/v) dimethylsulphoxide) was added. Cells were incubated with rolipram for 10 minutes after which time test compounds were added and the cells were incubated for 60 minutes at room temperature. The final rolipram concentration in the assay was 300 μM and final vehicle concentration was 1.6% (v/v) dimethylsulphoxide. The reaction was stopped by removing supernatants, washing once with 100 μL assay buffer and replacing with 50 μL lysis buffer. The cell monolayer was frozen at −80° C. for 30 minutes (or overnight).
# The concentration of cAMP (cyclic adenosine monophosphate) in the cell lysate was determined using AlphaScreen™ methodology. The frozen cell plate was thawed for 20 minutes on a plate shaker then 10 μL of the cell lysate was transferred to a 96-well white plate. 40 μL of mixed AlphaScreen™ detection beads pre-incubated with biotinylated cAMP, was added to each well and the plate incubated at room temperature for 10 hours in the dark. The AlphaScreen™ signal was measured using an EnVision spectrophotometer (Perkin-Elmer Inc.) with the recommended manufacturer's settings. cAMP concentrations were determined by reference to a calibration curve determined in the same experiment using standard cAMP concentrations. Concentration response curves for agonists were constructed and data was fitted to a four parameter logistic equation to determine both the pEC50 and Intrinsic Activity. Intrinsic Activity was expressed as a fraction relative to the maximum activity determined for formoterol in each experiment.
# T1 sequence (P07550 whole entry): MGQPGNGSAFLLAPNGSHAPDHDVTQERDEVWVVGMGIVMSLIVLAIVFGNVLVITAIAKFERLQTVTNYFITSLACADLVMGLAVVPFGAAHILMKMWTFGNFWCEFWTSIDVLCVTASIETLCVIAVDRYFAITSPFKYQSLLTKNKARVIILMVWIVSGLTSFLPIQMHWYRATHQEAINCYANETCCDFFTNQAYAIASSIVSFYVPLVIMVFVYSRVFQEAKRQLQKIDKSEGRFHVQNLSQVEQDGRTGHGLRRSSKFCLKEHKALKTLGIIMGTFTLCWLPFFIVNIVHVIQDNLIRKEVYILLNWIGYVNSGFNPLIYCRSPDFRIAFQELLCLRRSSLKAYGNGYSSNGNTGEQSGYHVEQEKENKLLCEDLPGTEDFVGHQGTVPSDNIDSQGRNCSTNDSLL
row,β2 Int Act,SMILES
1,0.83,"O=C(CCNCCc1ccc(Cl)cc1)N(CCNCCc1ccc(O)c2[nH]c(=O)sc12)C1CCOCC1 [Example 26, N^3-[2-(4-Chlorophenyl)ethyl]-N-(2-{[2-(4-hydroxy-2-oxo-2,3-dihydro-1,3-benzothiazol-7-yl)ethyl]amino}ethyl)-N-(tetrahydro-2H-pyran-4-yl)-β-alaninamide bis-trifluoroacetic acid salt]"
2,0.95,"Cc1ccccc1CCNCCC(=O)N(CCNCCc1ccc(O)c2[nH]c(=O)sc12)C1CCOCC1 [Example 27, N-(2-{[2-(4-Hydroxy-2-oxo-2,3-dihydro-1,3-benzothiazol-7-yl)ethyl]amino}ethyl)-N^3-[2-(2-methylphenyl)ethyl]-N-(tetrahydro-2H-pyran-4-yl)-β-alaninamide bis-trifluoroacetic acid salt]"
3,0.87,"O=C(CCNCCc1ccc(Cl)cc1)N(CCNCCc1ccc(O)c2[nH]c(=O)sc12)C1CCCC1 [Example 28, N^3-[2-(4-Chlorophenyl)ethyl]-N-cyclopentyl-N-(2-{[2-(4-hydroxy-2-oxo-2,3-dihydro-1,3-benzothiazol-7-yl)ethyl]amino}ethyl)-β-alaninamide bis-trifluoroacetic acid salt]"
4,0.97,"O=C(CCNCCc1ccccc1Cl)N(CCNCCc1ccc(O)c2[nH]c(=O)sc12)C1CCCC1 [Example 29, N^3-[2-(2-Chlorophenyl)ethyl]-N-cyclopentyl-N-(2-{[2-(4-hydroxy-2-oxo-2,3-dihydro-1,3-benzothiazol-7-yl)ethyl]amino}ethyl)-β-alaninamide bis-trifluoroacetic acid salt]"
5,0.96,"O=C(CCNCCc1cccc(Cl)c1)N(CCNCCc1ccc(O)c2[nH]c(=O)sc12)C1CCCC1 [Example 30, N^3-[2-(3-Chlorophenyl)ethyl]-N-cyclopentyl-N-(2-{[2-(4-hydroxy-2-oxo-2,3-dihydro-1,3-benzothiazol-7-yl)ethyl]amino}ethyl)-β-alaninamide bis-trifluoroacetic acid salt]"
6,0.92,"C[C@H](CNCCC(=O)N(CCNCCc1ccc(O)c2[nH]c(=O)sc12)C1CCCC1)c1ccccc1 [Example 31, N-cyclopentyl-N-(2-{[2-(4-hydroxy-2-oxo-2,3-dihydro-1,3-benzothiazol-7-yl)ethyl]amino}ethyl)-N^3-[(2S)-2-phenylpropyl]-β-alaninamide bis-trifluoroacetic acid salt]"
7,0.67,"CC(C)(CNCCC(=O)N(CCNCCc1ccc(O)c2[nH]c(=O)sc12)C1CCCC1)c1ccccc1 [Example 32, N-cyclopentyl-N-(2-{[2-(4-hydroxy-2-oxo-2,3-dihydro-1,3-benzothiazol-7-yl)ethyl]amino}ethyl)-N^3-(2-methyl-2-phenylpropyl)-β-alaninamide bis-trifluoroacetic acid salt]"
8,0.78,"O=C(CCNCCc1ccccn1)N(CCNCCc1ccc(O)c2[nH]c(=O)sc12)C1CCCCC1 [Example 33, N-Cyclohexyl-N-(2-{[2-(4-hydroxy-2-oxo-2,3-dihydro-1,3-benzothiazol-7-yl)ethyl]amino}ethyl)-N^3-(2-pyridin-2-ylethyl)-β-alaninamide bis-trifluoroacetic acid salt]"
9,0.75,"O=C(CCNCCc1ccc(O)cc1)N(CCNCCc1ccc(O)c2[nH]c(=O)sc12)C1CCCCC1 [Example 34, N-Cyclohexyl-N-(2-{[2-(4-hydroxy-2-oxo-2,3-dihydro-1,3-benzothiazol-7-yl)ethyl]amino}ethyl)-N^3-[2-(4-hydroxyphenyl)ethyl]-β-alaninamide bis-trifluoroacetic acid salt]"
10,0.91,"O=C(CCNCCc1cccs1)N(CCNCCc1ccc(O)c2[nH]c(=O)sc12)C1CCCCC1 [Example 35, N-Cyclohexyl-N-(2-{[2-(4-hydroxy-2-oxo-2,3-dihydro-1,3-benzothiazol-7-yl)ethyl]amino}ethyl)-N^3-[2-(2-thienyl)ethyl]-β-alaninamide bis-trifluoroacetic acid salt]"
11,0.84,"O=C(CCNCCc1cccc(F)c1)N(CCNCCc1ccc(O)c2[nH]c(=O)sc12)C1CCCCCC1 [Example 36, N-Cycloheptyl-N^3-[2-(3-fluorophenyl)ethyl]-N-(2-{[2-(4-hydroxy-2-oxo-2,3-dihydro-1,3-benzothiazol-7-yl)ethyl]amino}ethyl)-β-alaninamide bis-trifluoroacetic acid salt]"
12,0.91,"O=C(CCNCCc1cccc(O)c1)N(CCNCCc1ccc(O)c2[nH]c(=O)sc12)C1CCCCCC1 [Example 37, N-Cycloheptyl-N-(2-{[2-(4-hydroxy-2-oxo-2,3-dihydro-1,3-benzothiazol-7-yl)ethyl]amino}ethyl)-N^3-[2-(3-hydroxyphenyl)ethyl]-β-alaninamide bis-trifluoroacetic acid salt]"
13,0.42,"CC(C)(C)CN(CCNCCc1ccc(O)c2[nH]c(=O)sc12)C(=O)CCNC(C)(C)Cc1ccccc1 [Example 38, N^3-(1,1-Dimethyl-2-phenylethyl)-N-(2,2-dimethylpropyl)-N-(2-{[2-(4-hydroxy-2-oxo-2,3-dihydro-1,3-benzothiazol-7-yl)ethyl]amino}ethyl)-β-alaninamide bis-trifluoroacetic acid salt]"
14,0.58,"CC(=O)OCC(C)(C)CN(CCNCCc1ccc(O)c2[nH]c(=O)sc12)C(=O)CCNCCc1ccc(Cl)cc1 [Example 39, 3-[{N-[2-(4-Chlorophenyl)ethyl]-β-alanyl}(2-{[2-(4-hydroxy-2-oxo-2,3-dihydro-1,3-benzothiazol-7-yl)ethyl]amino}ethyl)amino]-2,2-dimethylpropyl acetate diacetic acid salt]"
15,0.64,"CC(C)(CO)CN(CCNCCc1ccc(O)c2[nH]c(=O)sc12)C(=O)CCNCCc1ccc(Cl)cc1 [Example 40, N^3-[2-(4-Chlorophenyl)ethyl]-N-(3-hydroxy-2,2-dimethylpropyl)-N-(2-{[2-(4-hydroxy-2-oxo-2,3-dihydro-1,3-benzothiazol-7-yl)ethyl]amino}ethyl)-β-alaninamide diacetic acid salt]"
16,0.99,"O=C(CCNCCc1ccccc1)N(CCNCCc1ccc(O)c2[nH]c(=O)sc12)C1Cc2ccccc2C1 [Example 41, N^1-(2,3-Dihydro-1H-inden-2-yl)-N^1-(2-{[2-(4-hydroxy-2-oxo-2,3-dihydro-1,3-benzothiazol-7-yl)ethyl]amino}ethyl)-N^3-(2-phenylethyl)-β-alaninamide bis-trifluoroacetic acid salt]"
17,0.82,"O=C(CCNCCc1cccc(Cl)c1)N(CCNCCc1ccc(O)c2[nH]c(=O)sc12)C1Cc2ccccc2C1 [Example 42, N^3-[2-(3-Chlorophenyl)ethyl]-N^1-(2,3-dihydro-1H-inden-2-yl)-N^1-(2-{[2-(4-hydroxy-2-oxo-2,3-dihydro-1,3-benzothiazol-7-yl)ethyl]amino}ethyl)-β-alaninamide bis-trifluoroacetic acid salt]"
18,0.67,"COc1cccc(CCNCCC(=O)N(CCNCCc2ccc(O)c3[nH]c(=O)sc23)CC(C)(C)C)c1 [Example 43, N^1-(2,2-Dimethylpropyl)-N^1-(2-{[2-(4-hydroxy-2-oxo-2,3-dihydro-1,3-benzothiazol-7-yl)ethyl]amino}ethyl)-N^3-[2-(3-methoxyphenyl)ethyl]-β-alaninamide bis-trifluoroacetic acid salt]"
19,0.55,"CC(C)(CN(CCNCCc1ccc(O)c2[nH]c(=O)sc12)C(=O)CCNCCc1ccccc1)c1ccccc1 [Example 45, N^1-(2-{[2-(4-Hydroxy-2-oxo-2,3-dihydro-1,3-benzothiazol-7-yl)ethyl]amino}ethyl)-N^1-(2-methyl-2-phenylpropyl)-N^3-(2-phenylethyl)-β-alaninamide bis-trifluoroacetic acid salt]"

row,SMILES,β2 Int Act
1,"O=C(CCNCCc1ccc(Cl)c(Cl)c1)N(CCNCCc1ccc(O)c2[nH]c(=O)sc12)C1CCOCC1 [Example 24, N^3-[2-(3,4-Dichlorophenyl)ethyl]-N-(2-{[2-(4-hydroxy-2-oxo-2,3-dihydro-1,3-benzothiazol-7-yl)ethyl]amino}ethyl)-N-(tetrahydro-2H-pyran-4-yl)-β-alaninamide bis-trifluoroacetic acid salt]",0.77
2,"CC(C)(C)CN(CCNCCc1ccc(O)c2[nH]c(=O)sc12)C(=O)CCNCCc1cccc(F)c1 [Example 44, N^1-(2,2-Dimethylpropyl)-N^3-[2-(3-fluorophenyl)ethyl]-N^1-(2-{[2-(4-hydroxy-2-oxo-2,3-dihydro-1,3-benzothiazol-7-yl)ethyl]amino}ethyl)-β-alaninamide bis-trifluoroacetic acid salt]",0.73
